Data taken from ChEMBL document CHEMBL1201862, “PubChem BioAssay data set” (2004).
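Following 48 hours of exposure in 96-well plates, responses at five concentrations were used to interpolate endpoints linearly. GI50 is the concentration that inhibits growth by half.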 The source made the active and inactive calls. Rule as the data show it: active = GI50 up to about 1.1 µM and inactive = higher.

How the values were obtained:
Test in all cases: NCI tumour cell line growth inhibition, 48 h
HOP-92 = system: HOP-92
SNB-19 = system: SNB-19
OVCAR-5 = system: OVCAR-5
A549 = system: A549
EKVX = system: EKVX
NCI-H226 = system: NCI-H226
OVCAR-8 = system: OVCAR-8
MOLT-4 = system: MOLT-4
MDA-N = system: MDA-N
SF-268 = system: SF-268
T47D = system: T47D
UACC-257 = system: UACC-257
NCI-H23 = system: NCI-H23
SF-539 = system: SF-539
OVCAR-4 = system: OVCAR-4
OVCAR-3 = system: OVCAR-3
UO-31 = system: UO-31
PC-3 = system: PC-3
Malme-3M = system: Malme-3M
NCI-H522 = system: NCI-H522

Structure (SMILES)	GI50 (HOP-92)	GI50 (SNB-19)	GI50 (OVCAR-5)	GI50 (A549)	GI50 (EKVX)	GI50 (NCI-H226)	GI50 (OVCAR-8)	GI50 (MOLT-4)	GI50 (MDA-N)	GI50 (SF-268)	GI50 (T47D)	GI50 (UACC-257)	GI50 (NCI-H23)	GI50 (SF-539)	GI50 (OVCAR-4)	GI50 (OVCAR-3)	GI50 (UO-31)	GI50 (PC-3)	GI50 (Malme-3M)	GI50 (NCI-H522)
O=C(Cc1ccccc1)NN1C(=O)/C(=C\c2ccccc2O)S/C1=N\c1ccccc1	39.3 µM (inactive)	> 100 µM (inactive)	> 100 µM (inactive)	> 100 µM (inactive)	> 100 µM (inactive)	> 100 µM (inactive)	> 100 µM (inactive)	> 100 µM (inactive)	> 100 µM (inactive)	> 100 µM (inactive)	> 100 µM (inactive)	> 100 µM (inactive)	> 100 µM (inactive)	> 100 µM (inactive)	> 100 µM (inactive)	> 100 µM (inactive)	> 100 µM (inactive)	–	–	–
SC1=C2CCCCCC2=NC2(CCCCCC2)S1	21.1 µM (inactive)	25.8 µM (inactive)	30.5 µM (inactive)	24.5 µM (inactive)	5.62 µM (inactive)	12.4 µM (inactive)	28.3 µM (inactive)	19 µM (inactive)	33.4 µM (inactive)	41.7 µM (inactive)	17.4 µM (inactive)	11 µM (inactive)	9.12 µM (inactive)	35.1 µM (inactive)	16.9 µM (inactive)	20.5 µM (inactive)	11.6 µM (inactive)	27.5 µM (inactive)	22 µM (inactive)	–
CC(C)NC(=O)N(Nc1ccccc1)C(C)(C)C	> 100 µM (inactive)	> 100 µM (inactive)	> 100 µM (inactive)	> 100 µM (inactive)	> 100 µM (inactive)	> 100 µM (inactive)	> 100 µM (inactive)	> 100 µM (inactive)	> 100 µM (inactive)	–	–	> 100 µM (inactive)	> 100 µM (inactive)	> 100 µM (inactive)	> 100 µM (inactive)	> 100 µM (inactive)	96.2 µM (inactive)	> 100 µM (inactive)	> 100 µM (inactive)	–
Cc1c2c(n3c(nc4ccccc43)c1C#N)SCC2	> 10 µM (inactive)	> 10 µM (inactive)	> 10 µM (inactive)	> 10 µM (inactive)	> 10 µM (inactive)	> 10 µM (inactive)	> 10 µM (inactive)	> 10 µM (inactive)	> 10 µM (inactive)	> 10 µM (inactive)	> 10 µM (inactive)	> 10 µM (inactive)	> 10 µM (inactive)	> 10 µM (inactive)	> 10 µM (inactive)	> 10 µM (inactive)	> 10 µM (inactive)	> 10 µM (inactive)	> 10 µM (inactive)	–
CCCCCCC(=O)O[C@H]1CC[C@H]2[C@@H]3CCC4C/C(=N/NC(=O)c5cccc6c(=O)c7ccccc7[nH]c56)C=C(C)[C@]4(C)[C@H]3CC[C@]12C (stereo partly drawn)	> 25 µM (inactive)	> 25 µM (inactive)	> 25 µM (inactive)	> 25 µM (inactive)	> 25 µM (inactive)	> 25 µM (inactive)	> 25 µM (inactive)	> 25 µM (inactive)	> 25 µM (inactive)	> 25 µM (inactive)	> 25 µM (inactive)	> 25 µM (inactive)	> 25 µM (inactive)	> 25 µM (inactive)	> 25 µM (inactive)	> 25 µM (inactive)	19.6 µM (inactive)	> 25 µM (inactive)	> 25 µM (inactive)	–
Cc1cc(O)nc(NN2C(Cl)C(=O)C2c2ccc(Cl)cc2)n1 (stereo not drawn)	12.9 µM (inactive)	19.4 µM (inactive)	40 µM (inactive)	26.3 µM (inactive)	16.6 µM (inactive)	11.9 µM (inactive)	19.1 µM (inactive)	6.65 µM (inactive)	8.53 µM (inactive)	19.8 µM (inactive)	16.6 µM (inactive)	21.6 µM (inactive)	15.8 µM (inactive)	16.3 µM (inactive)	22.9 µM (inactive)	13.6 µM (inactive)	25.6 µM (inactive)	32.7 µM (inactive)	16.8 µM (inactive)	–
N#CC1(C#N)C2C=CC(C3CC=CC32)C1(C#N)C#N (stereo not drawn)	4.27 µM (inactive)	> 50 µM (inactive)	8.39 µM (inactive)	10.7 µM (inactive)	12.3 µM (inactive)	> 50 µM (inactive)	4.72 µM (inactive)	1.48 µM (inactive)	–	11.2 µM (inactive)	3.38 µM (inactive)	12.7 µM (inactive)	8.32 µM (inactive)	9.66 µM (inactive)	4.01 µM (inactive)	2.45 µM (inactive)	2.17 µM (inactive)	8.59 µM (inactive)	2.79 µM (inactive)	1.22 µM (inactive)
COc1nc2c(c(=O)[nH]1)N=C(c1ccc(Cl)cc1)CC(c1ccccc1)N2 (stereo not drawn)	24.1 µM (inactive)	35.6 µM (inactive)	49.9 µM (inactive)	33.4 µM (inactive)	29.6 µM (inactive)	29.4 µM (inactive)	21.2 µM (inactive)	35.6 µM (inactive)	31 µM (inactive)	–	–	36.8 µM (inactive)	49.2 µM (inactive)	21.6 µM (inactive)	22.7 µM (inactive)	37.8 µM (inactive)	29.6 µM (inactive)	43.5 µM (inactive)	–	20.3 µM (inactive)
C=C1C[C@]23CC[C@@H]4C(CO)(CO)CC(=O)C[C@]4(C)[C@@H]2CC[C@H]1C3	> 100 µM (inactive)	21.5 µM (inactive)	> 100 µM (inactive)	> 100 µM (inactive)	> 100 µM (inactive)	93.8 µM (inactive)	> 100 µM (inactive)	> 100 µM (inactive)	> 100 µM (inactive)	> 100 µM (inactive)	–	> 100 µM (inactive)	> 100 µM (inactive)	> 100 µM (inactive)	> 100 µM (inactive)	> 100 µM (inactive)	78.5 µM (inactive)	40.5 µM (inactive)	> 100 µM (inactive)	> 100 µM (inactive)
O=C1c2ccccc2C(=O)c2c1c1cc(O)ccc1n2Cc1ccc(Cl)cc1Cl	–	13.4 µM (inactive)	1.89 µM (inactive)	3.27 µM (inactive)	–	11.5 µM (inactive)	4.57 µM (inactive)	15.3 µM (inactive)	12.1 µM (inactive)	12.9 µM (inactive)	–	25.1 µM (inactive)	7.23 µM (inactive)	3.97 µM (inactive)	1.9 µM (inactive)	–	19.1 µM (inactive)	1.61 µM (inactive)	22.8 µM (inactive)	–
CC(=O)O[C@H]1C(=O)[C@]2(C)[C@@H](OC(=O)OCCC(O)CO)C[C@H]3OC[C@@]3(OC(C)=O)[C@H]2[C@H](OC(=O)c2ccccc2)[C@]2(O)C[C@H](OC(=O)[C@H](O)[C@@H](NC(=O)c3ccccc3)c3ccccc3)C(C)=C1C2(C)C (stereo partly drawn)	8.63 µM (inactive)	0.0445 µM (active)	0.0303 µM (active)	0.035 µM (active)	0.121 µM (active)	< 0.0228 µM (active)	0.0463 µM (active)	< 0.0106 µM (active)	< 0.01 µM (active)	< 0.0171 µM (active)	–	0.037 µM (active)	< 0.0127 µM (active)	< 0.01 µM (active)	13.9 µM (inactive)	< 0.01 µM (active)	8.61 µM (inactive)	< 0.0128 µM (active)	< 0.01 µM (active)	< 0.01 µM (active)
Cc1cn([C@H]2[C@@H](CO)C[C@H]2O)c(=O)[nH]c1=O	> 100 µM (inactive)	–	> 100 µM (inactive)	> 100 µM (inactive)	> 100 µM (inactive)	> 100 µM (inactive)	> 100 µM (inactive)	> 100 µM (inactive)	> 100 µM (inactive)	> 100 µM (inactive)	–	50.4 µM (inactive)	> 100 µM (inactive)	> 100 µM (inactive)	> 100 µM (inactive)	> 100 µM (inactive)	> 100 µM (inactive)	> 100 µM (inactive)	> 100 µM (inactive)	> 100 µM (inactive)
CC(NNC(=O)c1ccncc1)c1ccccc1 (stereo not drawn)	> 100 µM (inactive)	> 100 µM (inactive)	> 100 µM (inactive)	> 100 µM (inactive)	> 100 µM (inactive)	> 100 µM (inactive)	> 100 µM (inactive)	> 100 µM (inactive)	> 100 µM (inactive)	> 100 µM (inactive)	> 100 µM (inactive)	> 100 µM (inactive)	> 100 µM (inactive)	> 100 µM (inactive)	> 100 µM (inactive)	> 100 µM (inactive)	> 100 µM (inactive)	> 100 µM (inactive)	> 100 µM (inactive)	–
O=C1/C(=C\c2ccc(Br)cc2)CCCc2ccccc21	19.1 µM (inactive)	16.6 µM (inactive)	38.6 µM (inactive)	31.6 µM (inactive)	17.5 µM (inactive)	14.4 µM (inactive)	15 µM (inactive)	18.1 µM (inactive)	17.4 µM (inactive)	16.9 µM (inactive)	10.5 µM (inactive)	19.5 µM (inactive)	17.1 µM (inactive)	15.5 µM (inactive)	12.3 µM (inactive)	20.8 µM (inactive)	14.6 µM (inactive)	20.3 µM (inactive)	–	–
C/C=C/c1c(O)c(=O)c2c(OC)cc(OC)c3c4c(OC)cc(OC)c5c(=O)c(O)c(/C=C/C)c(c1c23)c54	14.4 µM (inactive)	1.95 µM (inactive)	20.5 µM (inactive)	5.97 µM (inactive)	16.6 µM (inactive)	< 0.01 µM (active)	6.35 µM (inactive)	4.03 µM (inactive)	6.87 µM (inactive)	7.66 µM (inactive)	–	16.5 µM (inactive)	7.59 µM (inactive)	3.61 µM (inactive)	13 µM (inactive)	3.99 µM (inactive)	1.64 µM (inactive)	6.37 µM (inactive)	6.25 µM (inactive)	4.71 µM (inactive)
